From patent publication US3947466A, “Intermediates and process for the production of certain triazolobenzodiazepines” (priority 1974, dated 1976)
Entries after “also recorded” stand apart in the source; their conditions may differ. Structures can show the parent of a compound that is named as a salt. Where two headings read alike, the source gives them in different places.

Legend:
[1] = Chimney test: ability of mice to back up and out of a vertical glass cylinder within 30 seconds; type: in vivo; settings: Mus musculus, ip
Text: The test determines the ability of mice to back up and out of a vertical glass cylinder within 30 seconds. At the effective dosage, 50% of the mice failed doing it.

[2] = Dish test: mice remaining in the dish for more than 3 minutes (tranquilization); type: in vivo; settings: Mus musculus, ip
Experimental: Dish test: Mice in Petri dishes (10 cm. diameter, 5 cm. high, partially embedded in wood shavings), climb out in a very short time, when not treated. Mice remaining in the dish for more than 3 minutes indicates tranquilization.

[3] = Pedestal test: tranquilized mice stay on the pedestal for more than 1 minute; type: in vivo; settings: Mus musculus, ip
Experimental: Pedestal Test: The untreated mouse leaves the pedestal in less than a minute to climb back to the floor of the standard mouse box. Tranquilized mice will stay on the pedestal for more than 1 minute. The ED50 (intraperitoneal administration) was 0.8 mg./kg.

[4] = system: nicotine salicylate; experiment: animal or person; type: in vivo, mice; settings: for ED50: Mus musculus, ip
Experimental: Nicotine antagonism test: Mice in a group of 6 are injected with the test compound, 8-chloro-1-[(dimethylamino)methyl]-6-phenyl-4H-s-triazolo[4,3-a][1,4]benzodiazepine. Thirty minutes later the mice, including control (untreated) mice, are injected with nicotine salicylate (2 mg./kg.). The control mice show overstimulation, i.e., (1) running convulsions (2) tonic extensor fits; followed by (3) death.

[5] = system: strychnine sulfate; experiment: animal or person; type: in vivo, mice
Experimental: The test consists in orally administering into groups of 6 mice the test compound, and 30 minutes later 3 mg./kg. strychnine sulfate intraperitoneally. The survivors after 4 hours reflect the activity of the compound as a muscle relaxant and antispasmodic.

[6] = system: oxotremorine; experiment: animal or person; type: in vivo, mice (male, Strain CF=Carworth Farms); settings: for ED50: Mus musculus, ip, 0.5 h, read-out: ED50, oxotremorine hypothermia antagonism (temperature at least 4° C. higher than control mice); for Oxo (Oxotremorine test): TABLE V
Experimental: Hypothermic tests with oxotremorine: [1-(4-pyrrolidino-2-butynyl)-2-pyrrolidinone].
The present compounds were tested as follows. […] The lowering of the body temperature was measured rectally with an electronic thermometer, before and 30 minutes after drug administration. After the drug administration the mice were kept at 19° C. in cages. A 4° difference between the control mice (oxotremorine alone) and the treated mice (oxotremorine and test compound) was used to indicate the antagonistic action of the test compound.

[7] = system: yohimbine hydrochloride; experiment: animal or person; settings: for ED50: Mus musculus, 2 h, read-out: ED50, yohimbine potentiation (causes 50% of the mice to die); for YO (Yohimbine test): TABLE V
Experimental: (§1) Ten male CF mice, 18-22 g., were injected with the anti-depressant and 30 minutes later with 30 […] hydrochloride (YCl) in saline solution. After two hours, the LD50 were determined.

[8] = LD50 values in mice; settings: mouse, in vivo
[9] = system: apomorphine hydrochloride; experiment: animal or person; settings: Mus musculus, ip, 0.5 h, read-out: ED50, potentiation of apomorphine gnawing
[10] = system: oxotremorine; settings: cited from earlier work; for hypothermic response / effect on oxotremorine-induced temperature decrease / hypothermic response: mice, background statement
[11] = system: apomorphine hydrochloride; settings: TABLE V
[12] = in vivo; settings: mouse, in vivo, ip
Experimental: as §1

[13] = mice, route not given, TABLE IV

CN(C)Cc1nnc2n1-c1ccc(Cl)cc1C(c1ccccc1)=NC2 [8-Chloro-1-[(dimethylamino)methyl]-6-phenyl-4H-s-triazolo[4,3-a][1,4]benzodiazepine]
ED50 ([1]; read-out: effective intraperitoneal dosage for 50% of mice (ED50), chimney test): 2.3 mg/kg
ED50 ([2]; read-out: ED50, dish test): 0.28 mg/kg
ED50 ([3]; read-out: ED50, pedestal test): 0.8 mg/kg
ED50 ([4]; read-out: dosage protecting 50% of the animals against death (nicotine antagonism)): 0.11 mg/kg
ED50 ([5]; Mus musculus, po, 4 h, read-out: effective dosage ED50, antagonism to strychnine): 50 mg/kg
ED50 [6]: 5.3 mg/kg
ED50 [7]: 12.5 mg/kg
LD50 [8, 13]: 476 mg/kg
ED50 [9]: 5.3 mg/kg

CN(C)CCCN1c2ccccc2CCc2ccccc21 [Imipramine, reference compound]
ED50 [6]: 5.3 mg/kg
ED50 [7]: 4.4 mg/kg
ED50 [9]: 17.7 mg/kg

O=C1CCCN1CC#CCN1CCCC1 [Oxotremorine, 1-(4-pyrrolidino-2-butynyl)-2-pyrrolidinone]
decrease of body temperature ([10]; 0.6 mg./kg. oxotremorine, mouse kept at room temperature): about 13 ° F.
hypothermic response [10]: produces hypothermic responses in mice; also recorded: very pronounced hypothermia

CN(C)CCC=C1c2ccccc2COc2ccccc21 [Doxepine, reference compound]
ED50 [6]: 14.9 mg/kg
ED50 [7]: 17.7 mg/kg
LD50 [8, 13]: 126 mg/kg
effect on oxotremorine-induced temperature decrease / hypothermic response [10]: antagonized
ED50 [9]: 17.7 mg/kg

CN(C)Cc1nnc2n1-c1ccc(Cl)cc1C(c1ccccc1Cl)=NC2 [8-Chloro-1-[(dimethylamino)methyl]-6-(o-chlorophenyl)-4H-s-triazolo[4,3-a][1,4]benzodiazepine]
ED50 ([1]; read-out: ED50 Ch): 0.2 mg/kg
ED50 ([2]; read-out: ED50 D): 0.36 mg/kg
ED50 ([3]; read-out: ED50 P): 0.36 mg/kg
ED50 ([4]; read-out: ED50 Ni): 0.63 mg/kg
Oxo (Oxotremorine test) [6]: > 30
YO (Yohimbine test) [7]: > 30
LD50 ([8]; TABLE V): > 100 mg/kg
Ap (Apomorphine test) [11]: 17.8

CCN(CC)Cc1nnc2n1-c1ccc(Cl)cc1C(c1ccccc1)=NC2 [8-Chloro-1-[(diethylamino)methyl]-6-phenyl-4H-s-triazolo[4,3-a][1,4]benzodiazepine]
ED50 ([6]; mice, oxotremorine 1 mg. i.p., 30 minutes, second TABLE I): 50 mg/kg
ED50 [7]: 42 mg/kg
LD50 [8, 13]: > 100 mg/kg
ED50 [9]: 14.9 mg/kg

COc1cc2c(cc1OC)C1CC(=O)C(CC(C)C)CN1CC2 (stereo not shown) [tetrabenazine]
hypothermic response [10]: produces hypothermic responses in mice

CN(C)Cc1nnc2n1-c1ccccc1C(c1ccccc1Cl)=NC2 [1-[(dimethylamino)methyl]-6-(o-chlorophenyl)-4H-s-triazolo-[4,3-a][1,4]benzodiazepine]
ED50 ([1]; read-out: ED50 Ch): 0.35 mg/kg
ED50 ([2]; read-out: ED50 D): 0.8 mg/kg
ED50 ([3]; read-out: ED50 P): 22 mg/kg
ED50 ([4]; read-out: ED50 Ni): 0.15 mg/kg
Oxo (Oxotremorine test) [6]: > 30
YO (Yohimbine test) [7]: > 30
LD50 ([8]; TABLE V): > 100 mg/kg
Ap (Apomorphine test) [11]: > 30

COC(=O)[C@@H]1[C@H]2C[C@H]3c4[nH]c5ccccc5c4CCN3C[C@@H]2CC[C@@H]1O [yohimbine hydrochloride]
LD50 [12]: 45 mg/kg
lethality of yohimbine hydrochloride alone ([7]; 30 mg./kg. (30 mg.), mice): non-lethal

CN1CCC[C@H]1c1cccnc1 [nicotine salicylate, reference compound]
effect of nicotine salicylate in control mice ([4]; 2 mg./kg., injected): overstimulation

CN1[C@@H]2CC[C@H]1C[C@@H](OC(=O)C(CO)c1ccccc1)C2 (stereo partly shown) [atropine]
effect on oxotremorine-induced temperature decrease / hypothermic response [10]: blocked

NCc1nnc2n1-c1ccc(Cl)cc1C(c1ccccc1)=NC2 [8-Chloro-1-(aminomethyl)-6-phenyl-4H-s-triazolo[4,3-a][1,4]benzodiazepine]
Oxo (Oxotremorine test) [6]: 29.7
YO (Yohimbine test) [7]: 35.4
LD50 ([8]; TABLE V): > 100 mg/kg
Ap (Apomorphine test) [11]: 2.6

CCN(CC)Cc1nnc2n1-c1ccc(Cl)cc1C(c1ccccc1Cl)=NC2 [8-Chloro-1-[(diethylamino)methyl]-6-(o-chlorophenyl)-4H-s-triazolo[4,3-a][1,4]benzodiazepine]
ED50 ([1]; read-out: ED50 Ch): 0.63 mg/kg
ED50 ([2]; read-out: ED50 D): 0.11 mg/kg
ED50 ([3]; read-out: ED50 P): 0.4 mg/kg
ED50 ([4]; read-out: ED50 Ni): 0.08 mg/kg

CNCCCN1c2ccccc2CCc2ccccc21 [desipramine]
effect on oxotremorine-induced temperature decrease / hypothermic response [10]: antagonized

O=C1C[C@@H]2OCC=C3CN4CC[C@]56c7ccccc7N1[C@H]5[C@H]2[C@H]3C[C@H]46 [strychnine sulfate, reference compound]
lethality of strychnine sulfate in control mice ([5]; 3 mg./kg. intraperitoneally): routinely fatal to all the control mice

CN1CCc2cccc3c2[C@H]1Cc1ccc(O)c(O)c1-3 [apomorphine]
hypothermic response [10]: produces hypothermic responses in mice
